Measurements published in patent US4870160A, “Polypeptides with laminin activity” (Regents of the University of Minnesota, priority 1987, dated 1989).
Peptide text beside a SMILES is read from it.

Columns and labels:
[1] = system: Bovine aortic endothelial cells; assay: Aortic endothelial cell adhesion assay (Example 5); type: cell-based; details: 0.1; 1.0; and 10.0 μg/per well adsorbed, 120 minutes at 37° C, FIG. 9
Method: Bovine aortic endothelial cells were isolated according to the following protocol. Aortas were obtained from a local slaughterhouse, washed in cold phosphate buffered saline (PBS) (136 mM NaCl, 2.6 mM KCl, 15.2 mM Na2HP04, pH 7.2) and processed within 2 hours. Crude collagenase (CLS III, 125-145 units per mg dry weight, Cooper Biomedical) was used at 2 mg/ml in Dulbecco's modified Eagle's medium (DMEM) (GIBCO). The vessel was clamped at the distal end, filled with the collagenase-PBS solution and digestion was carried out for 10 minutes. The lumenal contents were harvested, followed by the addition of fresh collagenase for two additional 10-minute periods. The enzyme-cell suspensions were added to an equal volume of DMEM containing 10% fetal bovine serum (FBS) to inhibit the enzyme and spun in a centrifuge at 400×g for 10 minutes. The resulting cell pellet was resuspended in DMEM containing 10% FBS, 100 units/ml of penicillin G, 100 μg/ml of streptomycin and 100 μg/ml of crude fibroblast growth factor. Cells are cultured in 75 cm^2 flasks in a humidified 5% CO2 atmosphere at 37° C. Cultures were fed twice a week with the same medium and cells were used in assays when approximately 75% confluent. Cells were identified as endothelial in nature by characteristic cobblestone morphology, contact inhibition of growth upon reaching confluency, and positive immunofluorescent staining for factor VIII:RAg (Miles Laboratories) [S. Schwartz, In Vitro, 14, 966 (1978)]. Only endothelial cells, megakaryocytes and platelets are known to contain the factor VIII:RAg. This method routinely gives a high yield of endothelial cells with little contamination (less than 5%) by smooth muscle cells, pericytes or fibroblasts as judged by phase contrast microscopy as well as by immunostaining.
Adhesion was measured using 96 well microtiter plates adsorbed with three different amounts (0.1; 1.0; and 10.0 μg/per well) of peptides 9, 11-18, BSA and laminin. Cultures of cells which were 60-80% confluent were metabolically labeled for 24 hours with the addition of 3 mCi/ml of ^3 H-amino acid mixture. On the day of the assay, the cells were harvested by trypsinization, the trypsin was inhibited by the addition of serum, and the cells were washed free of this mixture and resuspended in DMEM buffered with HEPES at pH 7.2. The adhesion medium also contained 2 mg/ml BSA. The cells were adjusted to a concentration of 3-4×10^4 /ml and 100 μls of this cell suspension was added to the wells. The assay mixture was then incubated at 37° C for 120 minutes. […] The solubilized cells were then quantitated using a liquid scintillation counter. […]

peptide 9 = target: T1, peptide 9 (Mus musculus, UniProt P02469); assay: Heparin/peptide interaction specificity, competition on coated peptide 9 (Example 4); type: binding; details: 3.1 μg per well of peptide 9 coated, FIG. 7
T1 construct: made in house; host or cells: chemical solid-phase (Merrifield) synthesis, no expression host
T1 sequence (P02469 662-681 limits assumed): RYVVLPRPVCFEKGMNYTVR
Method: (§1) To check whether charge was the main factor in the interaction between heparin and peptides 9 and 13, or whether the heparin structure was also critical to this interaction heparin along with two other sulfated glucosaminoglycans, dextran sulfate and chondroitin sulfate were used in competition experiments. A standard amount of 3.1 μg per well of peptide 9 and 12.5 ug per well of peptide 13 were coated on 96-well plates as described above. […] Wells were treated for two hours with 2 mg/ml BSA in wash buffer. Then, a final volume of 50 μls was added to each well, containing a standard amount of 3H-heparin (50,000 cpm per well) and various amounts of non-radioactiveheparin, dextran sulfate and […]. After incubating for two hours at 37° C., the wells were washed and radioactivity was counted as described above in Example 1. […] Therefore, the structure of heparin is a crucial factor for this interaction.

peptide 13 = target: T2, peptide 13 (Mus musculus, UniProt P02469); assay: Heparin/peptide interaction specificity, competition on coated peptide 13 (Example 4); type: binding; details: 12.5 ug per well of peptide 13 coated, FIG. 8
T2 construct: polypeptide F13 formally represents isolated laminin residues 1171-1188; made in house; host or cells: chemical solid-phase (Merrifield) synthesis, no expression host
Method: as §1

[2] = Heparin binding to peptides coated on 96-well plastic plates (Example 2); details: 1 mg/ml to 1 μg/ml, two hours at 37° C., FIG. 5
Method: In order to test the ability of the synthesized peptides (9 and 11-18) to bind to 96-well plastic plates (in which experiments with cultured cell lines can be performed), we did an experiment similar to that described above in Example 1. Stock solutions of peptides 9 and 11-18, laminin and BSA at a maximum concentration of 1 mg/ml were prepared and serially diluted in PBS+NaN3 producing final concentration from 1 mg/ml to 1 μg/ml. Fifty μl from each concentration was coated on the 96-well plates and left to dry overnight at 28° C. Then, wells were treated for two hours with […] of 2 mg/ml BSA in 6 mM phosphate, 100 mM NaCl, 68 μM CaCl2, pH 6.8 (wash buffer) in order to minimize non-specific binding. Next 50 μls of ^3 H-heparin (10 μg/ml) was added (50,000 cpm/well) for two hours at 37° C. The wells were then washed three times with wash buffer containing 0.05% Triton X-100 and finally they were incubated for thirty minutes at 60 C with 200 μl of 0.5 N NaOH and 1% SDS. The amount of ^3 H-heparin bound at each peptide concentration was quantitated as described above in Example 1.

Molecule | endothelial cell adhesion [1] | molar concentration needed for 50% inhibition of ^3 H-heparin binding, relative to heparin (peptide 9) | molar concentration needed for 50% inhibition of ^3 H-heparin binding, relative to heparin (peptide 13) | binding of ^3 H-heparin [2]
CC[C@H](C)[C@H](NC(=O)[C@H](Cc1ccc(O)cc1)NC(=O)CNC(=O)[C@@H]1CCCN1C(=O)[C@H](CC(=O)O)NC(=O)[C@H](CS)NC(=O)[C@@H](N)C(C)C)C(=O)NCC(=O)N[C@@H](CO)C(=O)N[C@@H](CCCNC(=N)N)C(=O)O [Peptide F18, VCDPGYIGSR] (H-VCDPGYIGSR-OH) | potent promoters of endothelial cell adhesion | – | – | –
VEGVEGPRCDKCTRGY [Peptide F12, 16-mer, laminin B1 chain aa 1133-1148] | potent promoters of endothelial cell adhesion | – | – | –
dermatan sulfate | – | Ten to one hundred times more molar concentration | Ten to one hundred times more molar concentration | –
dextran sulfate | – | Ten to one hundred times more molar concentration | Ten to one hundred times more molar concentration | –
laminin | – | – | – | bind heparin very well
